Reference: patent US11590117B2, “Treatment of a hematologic malignancy with 2-(4-chlorophenyl)-n-((2-(2,6-dioxopiperidin-3-yl)-1-oxoisoindolin-5-yl)methyl)-2,2-difluoroacetamide” (priority 2016, dated 2023)

Experiments:
Type in all cases: cell-based, human
HNT-34 cells = test: Compound 1 washout assay (glutarimide washout, viability at 72 hours); conditions: viability after 72 hours
Experimental: Compound 1 Washout Assay: For washout experiments, AML cell lines were plated in U-bottom 96-well plates at a density of 60,000 cells per well. All cells were treated at time zero (t=0) with Compound 1, then, at each time point, cells were resuspended in washout media containing glutarimide at 1000-fold excess over the compound working concentration (eg, 100 μM glutarimide for washout of 100 nM compound treatment). At the end of the incubation period, the plates were centrifuged for 3 minutes at 200 g, supernatant was removed, and cells were resuspended in 100 μL/well 1× Annexin V binding buffer containing Annexin V (2.5 μL/well) and 7-AAD (5 μL/well). Flow cytometry was performed using a BD FACSarray instrument and results were quantified using FlowJo software. At the same time, CTG was added to the 96-(black) well plates and processed as described above in the cell proliferation assay.
In order to determine at what time point Compound 1 causes AML cell lines to commit to apoptosis, washout experiments were performed at different time points, and the cell viability was assessed after 72 hours (see schematic in FIG. 30 A). Compound 1 (100 nM) irreversibly committed the cells to apoptosis within 8 to 16 hours of treatment (FIG. 30 B). Washing out 100 nM Compound 1 between 1 and 4 hours reduced the potency (right-shift in the EC50 curve) by ˜10-fold.

HNT-34 cells and PBMCs = test: Flow cytometry caspase 3/7 assay; conditions: HNT-34 cells over non-pre-activated PBMCs; 0.1 μM Compound 1; 72 hours
Experimental: (§1) Cell Apoptosis Assays: The ability of Compound 1 to induce apoptosis was assessed in selected AML cell lines and healthy PBMCs at the time points and compound concentrations indicated. For Annexin V/7-AAD readout by flow cytometry, AML cell lines were plated into flat bottom 96-well plates (BD Falcon) at a seeding density of 0.1 to 0.3×10^6 cells per mL in 200 μL complete media. Compound 1 was dispensed onto the plates and the cells were incubated for the times indicated. For frozen PBMCs, cells were thawed as previously described and plated at a seeding density of 1×10^6 cells per mL in 200 μL on Corning® BioCoat™ T-Cell Activation Anti-Human CD3 96-well plates (Corning Inc., Corning, N.Y.). Compound 1 was dispensed onto the plates and the cells were incubated for the times indicated. […] One hundred microliters of Annexin V/7-AAD buffer was added per well and the cells incubated for 15 minutes before being analyzed using the Attune Flow Cytometer (Life Technologies, Carlsbad, Calif.). For caspase 3/7 activity, the remaining 100 μL was incubated with CellEvent™ Caspase-3/7 Green ReadyProbes® Reagent (1:1000 dilution; Molecular Probes) for 15 minutes before being analyzed using the Attune Flow Cytometer. […]
The effects of Compound 1 in healthy PBMCs were also assessed. Compound 1 was added to PBMC s from one donor at time zero and assessed at 72 hours. […]

OCI-AML3 = test: Annexin V/7-AAD flow cytometry apoptosis assay; conditions: OCI-AML3 (Compound 1-insensitive AML line)
Experimental: as §1
Compound 1 Induces Apoptosis in Acute Myeloid Leukemia Cell Lines. […] 0.01 μM and 0.1 μM and apoptosis was assessed over time.

MDS progenitor cells = test: MDS colony forming assay in Methocult; conditions: 24 hours exposure; compared with liquid culture
Experimental: Methods. The effect of Compound 1 on high risk MDS samples was measured in an in vitro liquid culture as well as by colony assays in order to better define its effect on stem/progenitor cells. Bone marrow mononuclear cells (BMMCs) from high risk MDS patients were cultured in vitro in CellGro medium (GellGenix) supplemented with hLDL (40 μg/mL), SCF (50 ng/mL), FLT3 […] (50 ng/mL), IL-3 (10 ng/mL), IL-6 (25 ng/mL) and TPO (100 ng/mL), all from Peprotech. During culture, cells were exposed to different concentrations of Compound 1 (37, 111, 333 and 1000 nM) or DMSO control. After 24 hours, cells were washed twice to remove compound and maintained in culture up to one week, performing viable cell counting on days 1, 3 and 7. Just after compound washout, […] per condition were collected for colony forming assays and another […] were stained for intracellular flow cytometry.
For colony forming assays cells were seeded in Methocult media (Stem Cell Technologies), incubated at 37° C. during 14 days and scored by automatic counting using StemVision (Stem Cell Technologies).

O=C1CCC(N2Cc3cc(CNC(=O)C(F)(F)c4ccc(Cl)cc4)ccc3C2=O)C(=O)N1 (centres unmarked) [Compound 1, 2-(4-chlorophenyl)-N-((2-(2,6-dioxopiperidin-3-yl)-1-oxoisoindolin-5-yl)methyl)-2,2-difluoroacetamide]
reduction of potency on washout (HNT-34 cells; washout at 8 to 16 hours): ~4 fold | reduction of potency (right-shift in the EC50 curve) on washout (HNT-34 cells; washout between 1 and 4 hours): ~10 fold | difference in elevation of caspase 3/7 activity (HNT-34 cells and PBMCs): ~3 fold | induction of apoptosis (OCI-AML3): did not induce apoptosis | effect on MDS progenitor cells in colony forming assays (MDS progenitor cells): more acute
